# Data taken from paper PMC12016938, “A small molecule PKCε inhibitor reduces hyperalgesia induced by paclitaxel or opioid withdrawal” (JCI Insight, 2025).
# Where two headings read alike, the source gives them in different places.
# Target: T1, PKCε (Homo sapiens, UniProt Q02156)
# T1 sequence (Q02156 1-737): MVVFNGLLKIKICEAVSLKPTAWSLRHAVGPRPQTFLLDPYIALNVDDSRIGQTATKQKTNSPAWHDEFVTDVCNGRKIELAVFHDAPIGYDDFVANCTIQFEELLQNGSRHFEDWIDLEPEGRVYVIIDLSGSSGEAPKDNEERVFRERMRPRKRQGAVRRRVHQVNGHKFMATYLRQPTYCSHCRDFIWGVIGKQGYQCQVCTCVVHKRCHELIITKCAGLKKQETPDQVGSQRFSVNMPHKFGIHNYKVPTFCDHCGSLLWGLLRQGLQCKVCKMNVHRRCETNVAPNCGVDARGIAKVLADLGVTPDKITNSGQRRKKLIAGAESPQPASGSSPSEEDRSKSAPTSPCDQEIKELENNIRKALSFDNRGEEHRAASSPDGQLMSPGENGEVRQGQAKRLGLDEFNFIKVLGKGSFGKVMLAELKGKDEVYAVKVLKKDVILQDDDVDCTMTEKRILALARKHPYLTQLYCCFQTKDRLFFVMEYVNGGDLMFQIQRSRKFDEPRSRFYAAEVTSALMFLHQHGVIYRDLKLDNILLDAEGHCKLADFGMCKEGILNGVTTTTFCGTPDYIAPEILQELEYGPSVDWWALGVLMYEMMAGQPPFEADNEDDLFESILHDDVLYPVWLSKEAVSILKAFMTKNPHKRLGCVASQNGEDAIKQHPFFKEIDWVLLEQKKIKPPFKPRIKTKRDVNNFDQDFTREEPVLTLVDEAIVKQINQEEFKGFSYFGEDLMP
# Experiment: Lance-FRET kinase assay, PKCε
# Format: biochemical
# Design: His; AVI; made in house; host or cells: Sf9 cells
# Method: Kinase assays. CP612 was assayed against His-AVI–tagged human PKCε (1 nM) produced in Sf9 cells, and ROCK1 (Carna Biosciences; 5 nM) using the Lance-FRET kinase assay system (PerkinElmer Revvity). Other human recombinant PKCs (SignalChem Biotech) were assayed in triplicate at the following concentrations: PKCβII 1.6 nM, PKCγ 500 pM, PKCδ 5 nM, PKCθ 500 pM, and PKCζ 500 pM. PKCs were incubated in a 15 μL reaction volume with kinase buffer (20 mM Tris-HCL [pH 7.4], 10 mM MgCl2, 0.25 mM EGTA, 0.1 mg/mL BSA, and 0.15% Triton X-100), 50 nM ULight-labeled CREBtide […] (PerkinElmer, TRF0107, Revvity), and test compound. Reactions were initiated by adding 2.5 μM ATP at 27°C and were terminated after 60 minutes with 10 μL of 2.5× Stop Solution/Detection Mix containing 20 mM EDTA and 4 nM LANCE Ultra Europium anti–phospho-[…] (Ala25Ser) peptide antibody (PerkinElmer, TRF0200, Revvity). After incubation at 27°C for another 60 minutes, phosphorylation was detected using a FlexStation 3 Microplate Reader (Molecular Devices) in LANCE TR-FRET mode (excitation = 340 nm, emission = 665 nm) and expressed as relative fluorescence units (RFU). The percentage of inhibition was calculated as: (signal without test compound − signal with test compound)/(signal without test compound − signal without ATP) × 100. The Z’ factor for this assay ranged between 0.72 and 0.86.
# Kinase assays used 11-point concentration-response curves and results were analyzed by nonlinear regression using Prism 9 (GraphPad Software) to determine IC50 values. Other analyses were performed on Prism 9 and Statistica (Tibco Software). Scores for pain threshold, conditioned place preference, and self-administration were analyzed by ANOVA using the following factors. […] We used a Tukey’s test for post hoc comparisons across groups and Dunnett’s test for post hoc comparisons with own pain thresholds at baseline values in the pain studies. Somatic withdrawal scores were analyzed with a Kruskal-Wallis test due to the nonparametric nature of those data, followed by nonparametric post hoc comparisons according to Siegel and Castellan ([40]). A P value less than 0.05 was considered significant.
structure (smiles),measurement,setting,value
N[C@H](CNC(=O)C1(c2ccc(Cl)cc2)CCCC1)c1ccc(C(=O)Nc2ccncc2)cc1 [CP612],inhibition at 0.03 µM,"30 nM CP612, read-out: Inhibition of novel PKCs (PKCε)",> 50%
same,Relative potency within the nPKC subfamily,Figure 1B,most potent
same,IC50,"Figure 1B PKC isozyme panel, read-out: IC50 PKCε",2.03 nM
same,IC50,"mean of all runs (count 42 CP612; 38 CIDD-0072424), 2.5 μM ATP, read-out: IC50 (nM) [Enzyme: PKCε], mean",1.9 ± 0.4 nM
same,"ROCK1/PKCε ratio, mean",mean of ratios of all runs,54.8
